Results published in patent publication EP4582413A1, “ARYLTETRAHYDROPYRIDINE COMPOUND AND PEST CONTROL AGENT” (priority 2022, dated 2024).

How the values were obtained:
Format in all cases: in vivo
[1] = test system: diamondback moths (Plutella xylostella); assay: Insecticidal test for diamondback moths; conditions: Plutella xylostella, 144 h; 500 ppm chemical solution, leaves soaked, third-instar larvae, six days, 25°C; read-out: death rate
Summary of the method: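 Leaves dipped about 10 s in a 500 ppm aqueous dilution of an emulsion formulation with spreader, then air-dried. Five third-instar larvae released per dish and held at 25 °C. Tested in duplicate.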

[2] = test system: green peach aphids (Myzus persicae); assay: Insecticidal test for green peach aphids; conditions: Myzus persicae, foliar, 144 h; 500 ppm chemical solution sprinkled (2.5 mg/cm^2), wingless imagoes on leaf disc, six days, 25°C; read-out: death rate
Protocol: Wet absorbent cotton was laid on each glass dish having an inner diameter of 3 cm, a Chinese olive leaf cut into a circle having a diameter of 3 cm was placed thereon, and four wingless green peach aphids (Myzus persicae) imagoes were released. After a day, a 10% by mass emulsion of the presently invented compound prepared according to the above formulation example for an emulsion was diluted with water containing a spreader to prepare a chemical solution having a concentration of 500 ppm. The chemical solution prepared was sprinkled (2.5 mg/cm^2) with a rotary tower sprinkler, and the dishes were capped and accommodated in a thermostatic room at 25°C. […] The test was carried out in duplicate.

[3] = test system: cat fleas (Ctenocephalides felis); assay: whole plant or invertebrate; conditions: 72 h, read-out: death rate
Summary of the method: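 Glass containers (25 cm² inner surface) were coated with 250 µl of a 1000 ppm acetone solution, and the acetone was evaporated to leave a dry film. Five mixed-sex adult fleas were confined per container at 25°C. Mortality was scored after 3 days.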

[4] = test system: brown rice planthoppers (Nilaparvata lugens); assay: Insecticidal test for brown rice planthoppers; conditions: Nilaparvata lugens, 144 h; 500 ppm chemical solution, rice leaf sheaths soaked, third-instar larvae, six days, 25°C; read-out: death rate
Summary of the method: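 Rice leaf sheaths dipped ~10 s in 500 ppm compound solution (emulsion diluted in water with spreader), air-dried, then infested with five third-instar larvae per tube at 25 °C. Mortality scored after 6 days, death rate calculated, in duplicate.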

[5] = test system: western flower thrips (Frankliniella occidentalis); assay: Insecticidal activity against western flower thrips; conditions: Frankliniella occidentalis, 48 h; 500 ppm chemical solution sprinkled (2.5 mg/cm^2), larvae on common bean leaf, after 2 days; read-out: death rate
Summary of the method: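 Bean leaf squares on wet filter paper inoculated with 20 larvae. Compound emulsion diluted with spreader-containing water to 500 ppm and sprayed at 2.5 mg/cm^2 by rotary tower. Run in duplicate.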

Row | SMILES | mortality at 500 µg/mL [1] [%] | mortality at 500 µg/mL [2] [%] | mortality at 10 µg/cm2 [3] [%] | mortality at 500 µg/mL [4] [%] | mortality at 500 µg/mL [5] [%]
1 | O=C(Nc1cnc(Cl)cn1)C1=C(O)CC(c2cnc(Cl)c(-c3cccnc3)c2)NC1=O (stereo not shown) [2-098] | ≥ 90 | ≥ 90 | ≥ 50 | ≥ 90 | 
2 | O=C(Nc1cnc(Br)cn1)C1=C(O)CC(c2cnc(Cl)c(-c3cccnc3)c2)NC1=O (stereo not shown) [2-099] | ≥ 90 | ≥ 90 | ≥ 50 | ≥ 90 | ≥ 90
3 | O=C(Nc1ncc(Cl)cn1)C1=C(O)CC(c2cnc(Cl)c(-c3cccnc3)c2)NC1=O (stereo not shown) [2-100] | ≥ 90 | ≥ 90 | ≥ 50 | ≥ 90 | ≥ 90
4 | O=C(Nc1cncc(F)c1)C1=C(O)CC(c2cnc(Cl)c(-c3cnccc3F)c2)NC1=O (stereo not shown) [2-137] | ≥ 90 | ≥ 90 | ≥ 50 | ≥ 90 | ≥ 90
5 | O=C(Nc1ncccc1F)C1=C(O)CC(c2cnc(Cl)c(-c3cnccc3F)c2)NC1=O (stereo not shown) [2-141] | ≥ 90 | ≥ 90 | ≥ 50 | ≥ 90 | ≥ 90
6 | O=C(Nc1cnccc1F)C1=C(O)CC(c2cnc(Cl)c(-c3cncc(Cl)c3)c2)NC1=O (stereo not shown) [2-146] | ≥ 90 | ≥ 90 | ≥ 50 | ≥ 90 | ≥ 90
7 | O=C(Nc1nccs1)C1=C(O)CC(c2cnc(C(F)(F)F)c(-c3ccc(F)nc3)c2)NC1=O (stereo not shown) [2-184] | ≥ 90 | ≥ 90 | ≥ 50 | ≥ 90 | ≥ 90
8 | Cc1cccc(-c2cc(C3CC(O)=C(C(=O)Nc4ncccn4)C(=O)N3)cnc2Cl)c1 (stereo not shown) [2-271] | ≥ 90 | ≥ 90 | ≥ 50 | ≥ 90 | ≥ 90
9 | Cc1cccc(-c2cc(C3CC(O)=C(C(=O)Nc4cccnc4Cl)C(=O)N3)cnc2Cl)c1 (stereo not shown) [2-274] | ≥ 90 | ≥ 90 | ≥ 50 |  | 
10 | C#Cc1ccc(NC(=O)C2=C(O)CC(c3cnc(Cl)c(-c4cccc(C)c4)c3)NC2=O)cc1 (stereo not shown) [2-280] | ≥ 90 | ≥ 90 | ≥ 50 |  | ≥ 90
11 | O=C(Nc1ccc(F)cc1)C1=C(O)CC(c2nc(-c3cccc(F)c3)no2)NC1=O (stereo not shown) [3-011] | ≥ 90 | ≥ 90 | ≥ 50 | ≥ 90 | ≥ 90
12 | O=C(Nc1ccc(F)cc1)C1=C(O)CC(c2nc(-c3ccc(F)c(F)c3)no2)NC1=O (stereo not shown) [3-027] | ≥ 90 | ≥ 90 | ≥ 50 | ≥ 90 | ≥ 90
13 | O=C(Nc1ccc(F)cc1)C1=C(O)CC(c2nc(-c3cccc(Br)c3)no2)NC1=O (stereo not shown) [3-028] | ≥ 90 | ≥ 90 | ≥ 50 | ≥ 90 | ≥ 90
14 | O=C(Nc1ccc(F)cc1)C1=C(O)CC(c2nc(-c3cccc(F)c3F)no2)NC1=O (stereo not shown) [3-033] | ≥ 90 | ≥ 90 | ≥ 50 | ≥ 90 | 
15 | Cc1cccc(-c2noc(C3CC(O)=C(C(=O)Nc4cc(F)ccn4)C(=O)N3)n2)c1 (stereo not shown) [3-053] | ≥ 90 | ≥ 90 | ≥ 50 | ≥ 90 | 
16 | O=C(Nc1ccc(F)cc1)C1=C(O)CC(c2nc(-c3ccsc3)no2)NC1=O (stereo not shown) [3-109] | ≥ 90 | ≥ 90 | ≥ 50 |  | ≥ 90
17 | O=C(Nc1cccc(Cl)c1F)C1=C(O)CC(c2nc(-c3ccnc(F)c3)no2)NC1=O (stereo not shown) [3-248] | ≥ 90 | ≥ 90 | ≥ 50 |  | 
